Source: patent US8871463B2, “Method for screening a glutamate release inhibitor in an astrocyte” (Korea Institute of Science and Technology, priority 2012, dated 2014)
“Also recorded” adds a separate entry of the source.

What was measured:
TREK-1 [1] = assay: Gβγ-induced whole-cell current in cultured astrocytes; type: cell-based, mouse; settings: 6.09 nM Gβγ; for Gβγ-induced whole-cell current: competitive peptide in patch pipette; for Gβγ-induced conductance: 150 [Glu]in, gene silencing
Protocol: (§1) Current-voltage (I-V) curves were recorded from COS-7 expressing TREK-1. I-V curves were established by applying 1000-ms-duration voltage ramps from +70 to −100 mV. Data were acquired by an Axopatch 200A amplifier controlled by Clampex 9.2 via Digidata 1322A data acquisition system (Molecular Devices). Internal solution contained the following (in mM: 150 KCl, 5 EGTA, 10 HEPES, 0.5 CaCl2, 1 MgCl2, pH 7.3, 280 osm). Bath solution contains the following (in mM: 150 NaCl, 10 HEPES, 3 KCl, 2 CaCl2, 2MgCl2, and 5.5 glucose, pH 7.3). The pipette solution for observing Ca^2+ activated Cl^− current (Best1 channel current) whole-cell patch clamp in astrocytes contained the following (in mM: 135 NMDG-Cl, 5 MgCl2, 5 (Ca^2+)-EGTA-N-methyl-D-glucamine (NMDG), 10 HEPES, and 10 glucose, pH 7.3, adjusted with NMDG). We used Ca^2+-free intracellular solution composed of the following (in mM: 135 NMDG-Cl, 5 EGTA-NMDG, 2 MgCl2, 8 HEPES, and 10 sucrose, pH 7.3, adjusted with NMDG). I-V curves were established by applying 1000-ms-duration voltage ramps from +100 to −100 mV.
We then asked whether Gβγ can directly open any channels in cultured astrocytes. We performed whole-cell current recording with purified Gβγ in the patch-pipette according to the method of Experimentation 12. The results were shown in FIGS. 3d to 3f, FIG. 3i, and FIGS. 12d to 12f.

TREK-1 [2] = assay: Two-cell sniffer patch: Gβγ-induced glutamate release from astrocyte; type: cell-based, mouse; settings: 6.09 nM Gβγ, 5 mM glutamate in pipette; peptides 100 μM
Protocol: On the day of sniffer-patch, cultured astrocytes (HEK cells added) were transferred to a microscope stage for imaging. External solution contained (in mM): 150 NaCl, 10 Hepes, 3 KCl, 2 CaCl2, 2 MgCl2, 5.5 glucose, pH adjusted to pH 7.3 and osmolarity to 325 mOsmol kg* Rupture current were recorded from astrocyte under voltage (Vh=−70 mV) using Multiclamp 700B amplifier (Molecular Devices), acquired with pClamp 9.2. Recording electrodes (4-7MΩ) were filled with (mM): 5 glutamate, 135 CsCl, 0.5 CaCl2, 10 Hepes, 4 Mg-ATP, 0.3 Na3-GTP, 10 BAPTA and 6.09 nM Gβγ (pH adjusted to 7.3 with CsOH and osmolarity adjusted to 290-310 mOsm/kg with sucrose). In the case of gene silencing, transfection method is the same as simultaneous recording for sniffer patch. In competition assay, 100 μM N1-N4 synthesized peptides were added to pipette for recording astrocyte. GluR1LY-mediated currents were recorded from HEK cells expressing GluR1-L497Y under voltage clamp (Vh=−70 mV) using Multiclamp 700B amplifier (Molecular Devices), acquired with pClamp 9.2. Recording electrodes (4-7MΩ) were filled with (mM): 110 Cs-Gluconate, 30 CsCl, 0.5 CaCl2, 10 Hepes, 4 Mg-ATP, 0.3 Na3-GTP and 10 BAPTA (pH adjusted to 7.3 with CsOH and osmolarity adjusted to 290-310 mOsm/kg with sucrose). After rupture on the side of HEK cell, GluR1-L497Y-meidated full activation was induced by the treatment of 1 mM glutamate. And then Gβγ on the side of astrocyte was injected with the rupture after 10 min later. This rupture induced both inward current on both recording between astrocyte and HEK cell expressing GluR1-L497Y.

GNG4 = biological target: T1, GNG4 (Homo sapiens, UniProt P50150); assay: Yeast two hybrid interaction of TREK-1 N-terminal segments with GNG4; type: binding
T1 construct: expressed in transfected cells; host or cells: yeast strain AH109
T1 sequence (P50150 1-75): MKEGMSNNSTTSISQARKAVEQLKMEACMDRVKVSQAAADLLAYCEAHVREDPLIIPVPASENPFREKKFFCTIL
Source text: The TREK-1-N 1-4 were ligated into pGBKT7 encoding for the GAL4 DNA binding domain (BD) and the gamma 4 was cloned into pGADT7 encoding for the activation domain (AD). To assess the protein-protein interaction between TREK-1-N and gamma 4, both BD/TREK-1-N and AD/gamma 4 were co-transformed into the yeast strain AH109. AH109 is unable to synthesize histidine. However, interaction between TREK1-N and gamma 4 enables the yeast to make the His3 enzyme, thereby permitting histidine biosynthesis and growth on His minimal medium.

[3] = system: primary cultured astrocyte; type: cell-based, mouse
astrocyte = type: cell-based, mouse
Best1 channel [4] = biological target: T2, Best1 channel (Mus musculus, UniProt O88870); settings: intracellular Ca2+; read-out: EC50 of activation of Best1 channel; cited from earlier work
T2 sequence (O88870 1-551): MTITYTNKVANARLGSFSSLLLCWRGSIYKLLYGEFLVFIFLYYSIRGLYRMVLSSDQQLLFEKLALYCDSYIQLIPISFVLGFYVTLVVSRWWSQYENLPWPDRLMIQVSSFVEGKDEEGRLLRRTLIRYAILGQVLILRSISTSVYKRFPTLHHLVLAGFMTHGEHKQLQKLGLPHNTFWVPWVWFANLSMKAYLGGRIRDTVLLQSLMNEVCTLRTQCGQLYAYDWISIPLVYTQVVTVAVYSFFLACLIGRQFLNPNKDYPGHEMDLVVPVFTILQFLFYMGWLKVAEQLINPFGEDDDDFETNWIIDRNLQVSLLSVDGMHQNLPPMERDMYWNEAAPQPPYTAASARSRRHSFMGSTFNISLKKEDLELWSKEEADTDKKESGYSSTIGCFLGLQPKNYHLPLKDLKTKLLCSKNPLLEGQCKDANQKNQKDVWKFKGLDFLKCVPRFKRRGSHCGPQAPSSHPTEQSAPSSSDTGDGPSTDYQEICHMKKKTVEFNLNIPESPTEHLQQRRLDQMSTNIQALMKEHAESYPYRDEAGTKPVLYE

GluR1-L497Y = GluR1-L497Y (Homo sapiens, UniProt P42261, L497Y); type: cell-based
Chain of GluR1-L497Y (P42261 19-906 L497Y limits assumed): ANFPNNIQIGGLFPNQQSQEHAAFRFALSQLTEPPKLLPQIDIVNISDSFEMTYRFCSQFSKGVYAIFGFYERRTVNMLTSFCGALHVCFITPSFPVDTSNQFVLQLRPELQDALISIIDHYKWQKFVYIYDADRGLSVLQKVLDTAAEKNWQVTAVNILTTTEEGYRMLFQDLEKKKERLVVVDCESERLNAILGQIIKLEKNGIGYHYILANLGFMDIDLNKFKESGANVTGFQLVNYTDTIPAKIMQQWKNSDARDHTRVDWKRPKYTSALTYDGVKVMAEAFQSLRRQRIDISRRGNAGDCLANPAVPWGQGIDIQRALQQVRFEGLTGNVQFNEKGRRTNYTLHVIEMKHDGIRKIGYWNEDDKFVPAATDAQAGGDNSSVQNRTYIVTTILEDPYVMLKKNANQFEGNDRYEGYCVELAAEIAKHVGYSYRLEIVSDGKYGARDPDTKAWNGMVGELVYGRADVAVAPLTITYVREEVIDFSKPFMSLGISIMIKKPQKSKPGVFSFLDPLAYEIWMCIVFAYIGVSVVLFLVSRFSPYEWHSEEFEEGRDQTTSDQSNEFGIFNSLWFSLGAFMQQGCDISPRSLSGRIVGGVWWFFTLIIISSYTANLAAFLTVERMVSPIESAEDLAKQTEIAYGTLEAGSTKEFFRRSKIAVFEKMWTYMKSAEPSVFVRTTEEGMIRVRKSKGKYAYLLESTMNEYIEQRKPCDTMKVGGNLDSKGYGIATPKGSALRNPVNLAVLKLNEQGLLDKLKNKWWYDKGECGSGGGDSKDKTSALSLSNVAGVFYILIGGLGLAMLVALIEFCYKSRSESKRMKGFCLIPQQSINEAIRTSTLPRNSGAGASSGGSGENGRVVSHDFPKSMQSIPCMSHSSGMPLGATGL

mouse TREK-1 = biological target: T3, mouse TREK-1 (Mus musculus, UniProt P97438); assay: TREK-1-mediated whole-cell current in COS-7 cells; type: cell-based; settings: COS-7 cell expressing TREK-1; voltage ramp
T3 construct: expressed in transfected cells; host or cells: COS-7
T3 sequence (P97438 1-426): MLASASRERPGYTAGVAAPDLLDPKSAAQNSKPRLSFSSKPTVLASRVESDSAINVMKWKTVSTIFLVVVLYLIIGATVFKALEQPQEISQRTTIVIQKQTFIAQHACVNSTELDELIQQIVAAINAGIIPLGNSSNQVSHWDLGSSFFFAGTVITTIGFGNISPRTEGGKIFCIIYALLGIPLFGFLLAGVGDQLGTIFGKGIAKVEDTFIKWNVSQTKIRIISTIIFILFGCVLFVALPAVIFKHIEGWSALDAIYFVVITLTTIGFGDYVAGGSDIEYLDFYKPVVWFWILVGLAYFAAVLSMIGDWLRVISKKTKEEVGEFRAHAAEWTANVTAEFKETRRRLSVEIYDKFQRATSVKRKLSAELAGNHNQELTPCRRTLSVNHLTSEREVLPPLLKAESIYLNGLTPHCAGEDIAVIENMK
Protocol: as §1

Best1 channel [5] = biological target: Best1 channel (Mus musculus, UniProt O88870); type: cell-based

Which results are given for “AAPDLLDPKSA (Competitive peptides N1 of TREK-1)”?
Gβγ-induced whole-cell current (TREK-1 [1]): significantly reduced; also recorded: almost inhibit; Gβγ-induced current in astrocyte (TREK-1 [2]): significantly reduced; Gβγ-induced glutamate release (sensor current) (TREK-1 [2]): significantly reduced; interaction with GNG4 (GNG4): strongly interacted

Which results are given for O=C([O-])c1c(Cl)c(Cl)c(Cl)c(Cl)c1-c1c2cc(I)c(=O)c(I)c-2oc2c(I)c([O-])c(I)cc12.[Na+].[Na+] [Rose Bengal]?
fast and slow-modes of TFLLR-induced glutamate release (TFLLR-induced GluR1L497Y-mediated current) [3]: does not inhibit; also recorded: did not have any effect; glutamate release in response to mechanical stimulation (astrocyte): inhibited

With “TREK-1-shRNA: shRNA for mouse TREK-1 targeted at nucleotides 1043 to 1063 (SEQ ID NO: 17), in pSicoR (guide GCGTGGAGATCTACGACAAGT)” as the molecule, how does the “fast-mode of TFLLR-induced glutamate release” value [3] read?
Its value is “selectively eliminated”.

And the “slow-mode of TFLLR-induced glutamate release” value [3]?
Its value is “without affecting”.

And the Gβγ-induced conductance (TREK-1 [1])?
The Gβγ-induced conductance was “eliminated”.

And the Gβγ-induced conductance (TREK-1 [1]; listed as TREK-1 specific shRNA)?
Its Gβγ-induced conductance is “almost completely removed”.

What about the “Gβγ-induced current in astrocyte” value (TREK-1 [2]) of the same molecule?
Its value is “abolished”.

And the “Gβγ-induced glutamate release (sensor current)” value (TREK-1 [2])?
Its value is “abolished”.

Which results are given for “AQNSKPRLSFSS (Competitive peptides N2 of TREK-1)”?
Gβγ-induced whole-cell current (TREK-1 [1]): significantly reduced; interaction with GNG4 (GNG4): strongly interacted

With [Ca+2] [Ca^2+] as the molecule, how does the EC50 (Best1 channel [4]) read?
The EC50 was 150 nM.

For Cc1nc(N=Nc2ccc(S(=O)(=O)[O-])cc2S(=O)(=O)[O-])c(COP(=O)([O-])[O-])c(C=O)c1O.[Na+].[Na+].[Na+].[Na+] [PPADS, pyridoxal phosphate-6-azophenyl-2′,4′-disulfonic acid tetrasodium salt], which “fast-mode of TFLLR-induced glutamate release” value [3] is on record?
Its value is “appeared to block”.

And the “1 mM glutamate-induced GluR1L497Y-mediated current of sensor cell” value (GluR1-L497Y)?
Its value is “non-specific effect”.

And the TREK-1-mediated current (mouse TREK-1)?
Its TREK-1-mediated current is “inhibits”.

Which results are given for “DSAINVMKWKT (Competitive peptides N4 of TREK-1)”?
Gβγ-induced whole-cell current (TREK-1 [1]): significantly reduced; interaction with GNG4 (GNG4): strongly interacted

Which results are given for CO/C1=C\C(C)=C\[C@@H](C)[C@@H](O)[C@@H](C)C/C(C)=C/C=C/[C@H](OC)[C@@H]([C@@H](C)[C@@H](O)[C@H](C)[C@@]2(O)C[C@@H](O)[C@H](C)[C@@H](C(C)C)O2)OC1=O [Bafilomycin A1]?
fast and slow-modes of TFLLR-induced glutamate release (TFLLR-induced GluR1L497Y-mediated current) [3]: significantly reduction; also recorded: significantly reduced; also recorded: appeared to block; 1 mM glutamate-induced GluR1L497Y-mediated current of sensor cell (GluR1-L497Y): marked reduction; GluR1LY-mediated Ca2+ transient evoked by 1 mM glutamate (GluR1-L497Y): reduces; surface expression of GluR1-L497Y in the sensor cell (GluR1-L497Y): almost completely eliminated; Ca2+-activated anion current (Best1 channel [5]): inhibited
